Measured values: publication PMC3814616, “BRAF inhibitors suppress apoptosis through off-target inhibition of JNK signaling” (eLife, 2013)
pIC50: −log10 of the molar value.

Tests used:
Experiment in all cases: Quantitative competitive binding assay (KINOMEscan)
LZK (MAP3K13) = target: T1, LZK (MAP3K13) (Homo sapiens, UniProt O43283); details: for remaining binding at 0.05 µM: read-out: Percent control (50 nM); for remaining binding at 0.2 µM: read-out: Percent control (200 nM); for remaining binding at 1 µM: read-out: Percent control (1000 nM); for remaining binding at 10 µM: read-out: Percent control (10 μM)
T1 construct: purchased KINOMEscan (DiscoveRx), San Diego, CA
T1 sequence (O43283 1-966): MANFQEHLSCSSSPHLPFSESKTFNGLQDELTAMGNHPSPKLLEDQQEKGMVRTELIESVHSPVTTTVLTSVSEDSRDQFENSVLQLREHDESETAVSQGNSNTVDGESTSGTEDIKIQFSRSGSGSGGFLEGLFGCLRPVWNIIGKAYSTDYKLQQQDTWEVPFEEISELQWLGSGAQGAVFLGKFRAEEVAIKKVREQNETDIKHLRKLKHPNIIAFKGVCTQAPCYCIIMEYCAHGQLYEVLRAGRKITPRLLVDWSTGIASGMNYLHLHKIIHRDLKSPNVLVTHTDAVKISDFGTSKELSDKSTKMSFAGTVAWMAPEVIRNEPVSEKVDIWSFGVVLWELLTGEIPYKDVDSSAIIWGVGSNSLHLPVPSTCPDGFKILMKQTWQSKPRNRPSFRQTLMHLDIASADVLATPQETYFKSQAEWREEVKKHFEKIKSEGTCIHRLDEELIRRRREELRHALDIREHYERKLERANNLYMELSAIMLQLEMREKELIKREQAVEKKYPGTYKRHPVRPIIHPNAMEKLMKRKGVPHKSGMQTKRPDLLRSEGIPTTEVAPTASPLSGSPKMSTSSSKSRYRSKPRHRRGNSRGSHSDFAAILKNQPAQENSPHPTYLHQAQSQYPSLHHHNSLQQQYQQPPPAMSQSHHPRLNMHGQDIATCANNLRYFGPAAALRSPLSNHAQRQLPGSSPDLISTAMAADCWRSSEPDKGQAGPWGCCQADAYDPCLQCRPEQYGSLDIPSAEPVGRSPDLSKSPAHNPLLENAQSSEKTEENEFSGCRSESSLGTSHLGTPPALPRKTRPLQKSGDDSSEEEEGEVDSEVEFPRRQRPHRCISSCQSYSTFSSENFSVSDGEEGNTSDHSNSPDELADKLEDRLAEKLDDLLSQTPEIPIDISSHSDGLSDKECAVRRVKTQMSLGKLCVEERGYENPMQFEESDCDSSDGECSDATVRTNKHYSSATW

ASK1 (MAP3K5) = target: T2, ASK1 (MAP3K5) (Homo sapiens, UniProt Q99683); details: for pIC50: estimated Kd, averaged pointwise estimates, transformed Hill equation, read-out: Calculated estimate of IC50; for remaining binding at 0.05 µM: read-out: Percent control (50 nM); for remaining binding at 0.2 µM: read-out: Percent control (200 nM); for remaining binding at 1 µM: read-out: Percent control (1000 nM); for remaining binding at 10 µM: read-out: Percent control (10 μM)
T2 construct: purchased KINOMEscan (DiscoveRx), San Diego, CA
T2 sequence (Q99683 1-1374): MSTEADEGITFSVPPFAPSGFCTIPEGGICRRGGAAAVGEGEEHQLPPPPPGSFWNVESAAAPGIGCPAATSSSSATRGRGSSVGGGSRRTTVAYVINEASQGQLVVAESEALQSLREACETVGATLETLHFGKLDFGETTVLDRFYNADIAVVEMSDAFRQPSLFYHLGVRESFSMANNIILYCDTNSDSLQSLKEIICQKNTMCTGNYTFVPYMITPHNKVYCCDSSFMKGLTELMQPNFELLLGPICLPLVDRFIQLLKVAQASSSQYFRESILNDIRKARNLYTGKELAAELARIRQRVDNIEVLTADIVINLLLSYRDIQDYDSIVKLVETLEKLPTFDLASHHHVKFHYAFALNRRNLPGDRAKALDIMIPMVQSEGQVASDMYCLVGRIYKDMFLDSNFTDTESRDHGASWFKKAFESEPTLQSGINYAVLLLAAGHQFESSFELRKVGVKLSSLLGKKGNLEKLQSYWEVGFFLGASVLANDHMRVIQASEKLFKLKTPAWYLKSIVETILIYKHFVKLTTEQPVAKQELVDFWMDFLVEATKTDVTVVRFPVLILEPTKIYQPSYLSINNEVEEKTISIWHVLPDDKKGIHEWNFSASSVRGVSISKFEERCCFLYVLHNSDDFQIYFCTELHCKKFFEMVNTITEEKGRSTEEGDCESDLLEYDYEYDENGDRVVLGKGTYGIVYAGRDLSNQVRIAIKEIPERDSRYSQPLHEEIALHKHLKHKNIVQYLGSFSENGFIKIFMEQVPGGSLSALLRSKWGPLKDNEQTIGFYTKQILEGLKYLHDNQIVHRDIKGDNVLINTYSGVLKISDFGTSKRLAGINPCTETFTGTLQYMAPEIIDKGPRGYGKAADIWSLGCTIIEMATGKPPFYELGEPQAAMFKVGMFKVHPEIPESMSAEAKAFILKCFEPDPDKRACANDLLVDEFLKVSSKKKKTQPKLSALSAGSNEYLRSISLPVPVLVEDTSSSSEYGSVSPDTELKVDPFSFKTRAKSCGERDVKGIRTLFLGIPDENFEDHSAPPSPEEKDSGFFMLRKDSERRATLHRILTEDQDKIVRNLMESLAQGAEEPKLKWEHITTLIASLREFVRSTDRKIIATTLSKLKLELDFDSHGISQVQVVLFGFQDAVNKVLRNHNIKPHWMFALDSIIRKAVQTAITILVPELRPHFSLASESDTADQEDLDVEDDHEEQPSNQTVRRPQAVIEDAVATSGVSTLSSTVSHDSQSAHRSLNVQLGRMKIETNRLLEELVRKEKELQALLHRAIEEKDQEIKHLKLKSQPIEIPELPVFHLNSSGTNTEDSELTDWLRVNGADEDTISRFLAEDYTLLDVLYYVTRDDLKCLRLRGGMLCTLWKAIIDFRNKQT

MST1 (STK4) = target: T3, MST1 (STK4) (Homo sapiens, UniProt Q13043); details: for remaining binding at 0.05 µM: read-out: Percent control (50 nM); for remaining binding at 0.2 µM: read-out: Percent control (200 nM); for remaining binding at 1 µM: read-out: Percent control (1000 nM); for remaining binding at 10 µM: read-out: Percent control (10 μM)
T3 construct: purchased KINOMEscan (DiscoveRx), San Diego, CA
T3 sequence (Q13043 1-487): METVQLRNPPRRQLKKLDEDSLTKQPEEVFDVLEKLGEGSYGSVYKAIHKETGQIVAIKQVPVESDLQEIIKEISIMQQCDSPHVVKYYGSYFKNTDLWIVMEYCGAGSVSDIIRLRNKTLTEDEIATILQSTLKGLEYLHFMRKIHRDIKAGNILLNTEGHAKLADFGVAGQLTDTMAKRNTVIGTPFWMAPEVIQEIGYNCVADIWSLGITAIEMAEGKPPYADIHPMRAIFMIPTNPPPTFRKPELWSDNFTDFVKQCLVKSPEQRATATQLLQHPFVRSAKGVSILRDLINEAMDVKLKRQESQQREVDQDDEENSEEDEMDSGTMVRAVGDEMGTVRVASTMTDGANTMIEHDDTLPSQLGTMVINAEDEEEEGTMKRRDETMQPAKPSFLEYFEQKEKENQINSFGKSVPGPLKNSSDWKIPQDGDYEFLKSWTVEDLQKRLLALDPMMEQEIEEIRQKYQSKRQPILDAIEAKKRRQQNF

| SMILES | remaining binding at 0.05 µM (LZK (MAP3K13)) [%] | remaining binding at 0.2 µM (LZK (MAP3K13)) [%] | remaining binding at 1 µM (LZK (MAP3K13)) [%] | remaining binding at 10 µM (LZK (MAP3K13)) [%] | pIC50 (ASK1 (MAP3K5)) | remaining binding at 0.05 µM (ASK1 (MAP3K5)) [%] | remaining binding at 0.2 µM (ASK1 (MAP3K5)) [%] | remaining binding at 1 µM (ASK1 (MAP3K5)) [%] | remaining binding at 10 µM (ASK1 (MAP3K5)) [%] | pIC50 (MST1 (STK4); estimated Kd, averaged pointwise estimates, transformed Hill equation, read-out: Calculated estimate of IC50) | remaining binding at 0.05 µM (MST1 (STK4)) [%] | remaining binding at 0.2 µM (MST1 (STK4)) [%] | remaining binding at 1 µM (MST1 (STK4)) [%] | remaining binding at 10 µM (MST1 (STK4)) [%] |
| --- | --- | --- | --- | --- | --- | --- | --- | --- | --- | --- | --- | --- | --- | --- |
| CCCS(=O)(=O)Nc1ccc(F)c(C(=O)c2c[nH]c3ncc(Cl)cc23)c1F [PLX4720] | 94 | 100 | 96 | 75 | 4.85 | 89 | 98 | 97 | 100 | 5.17 | 100 | 93 | 84 | 55 |
| CCCS(=O)(=O)Nc1ccc(F)c(C(=O)c2c[nH]c3ncc(-c4ccc(Cl)cc4)cc23)c1F [vemurafenib] | 100 | 99 | 93 | 74 | 4.92 | 90 | 94 | 97 | 100 |  | 99 | 83 | 51 | 12 |
